Key:
R15B-PP1c = target: T1, R15B-PP1c (Homo sapiens, UniProt Q5SWA1); experiment: In vitro dephosphorylation of P-eIF2α by recombinant R15B-PP1c holophosphatase (10 nM PP1c); type: biochemical; conditions: PP1c 10 nM, 1 μM P-eIF2α, compounds 100 μM, 30° C., 16 h
T1 construct: PPP1R15B amino acids 340-698 (R15B); His6 (C); made in house; host or cells: E. coli BL21 pLysS (R15B, eIF2α); E. coli BL21/pGro7 (PP1c)
Method: (§1) PP1c was diluted to the appropriate concentration (as indicated in the figure legends) in dephosphorylation buffer immediately prior to use. Dephosphorylation reactions were carried out by pre-incubating diluted PP1c in the presence or absence of regulatory subunits (either […]), and/or compounds (all at 100 μM, except for Salubrinal which was used at 30 μM), for 15′ at RT. All compounds were diluted in DMSO, and DMSO vehicle was used in all control experiments.
(§2) The reaction was initiated by the addition of 1 μM P-eIF2α or ^33P Phosphorylase a substrates and then incubated at 30° C. for 16 h with shaking at 350 rpm. Reactions were stopped by addition of 4× Laemmli sample buffer. eIF2α samples were analyzed by immunoblotting or Phos-tag gels. P-eIF2α dephosphorylation was analysed by immunoblotting using anti-Phospho-eIF2α (SerS1) (#9721) (Cell Signaling) and anti-eIF2α (ab26197) (AbCam) antibodies. Samples in FIG. 8 and FIG. 16 were run on a 15% SuperSep Phos-tag acrylamide gel (Alpha Laboratories) and visualized by staining with InstantBlue Protein Stain.

PP1c = target: T2, PP1c (Homo sapiens, UniProt P62136); experiment: Dephosphorylation of P-eIF2α by increasing amounts of PP1c alone; type: biochemical; conditions: compound 100 μM, 30° C., 16 h
T2 construct: The cDNA encoding amino acids 7-330 of human PP1cα; made in house; host or cells: E. coli BL21/pGro7 (PP1c); E. coli BL21 pLysS (eIF2α)
T2 sequence (P62136 7-330): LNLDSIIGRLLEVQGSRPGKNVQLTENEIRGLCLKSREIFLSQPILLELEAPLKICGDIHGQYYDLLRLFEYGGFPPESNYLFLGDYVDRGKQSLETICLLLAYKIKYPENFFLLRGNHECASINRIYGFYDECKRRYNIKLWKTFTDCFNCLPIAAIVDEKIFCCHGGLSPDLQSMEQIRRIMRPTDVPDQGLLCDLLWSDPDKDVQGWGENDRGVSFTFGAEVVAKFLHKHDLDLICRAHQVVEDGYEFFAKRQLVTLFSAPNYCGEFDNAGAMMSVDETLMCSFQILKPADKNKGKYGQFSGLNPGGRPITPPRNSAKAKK
Method: as §1
as §2, with “P-eIF2α dephosphorylation was analysed by immunoblotting using anti-Phospho-eIF2α (SerS1) (#9721) (Cell Signaling) and anti-eIF2α (ab26197) (AbCam) antibodies.” left out

R15A^N/R15B^C = target: T3, R15A^N/R15B^C (Homo sapiens, UniProt O75807+Q5SWA1); experiment: Dephosphorylation of P-eIF2α by chimeric holophosphatase PP1c-R15A^N/R15B^C; type: biochemical; conditions: PP1c 10 nM, compounds 100 μM, 30° C., 16 h
T3 construct: PPP1R15A amino acids 325-636 (R15A), 325-512 (R15A^N), and 513-636 (R15A^C); PPP1R15B amino acids 340-698 (R15B), 340-635 (R15B^N), and 636-698 (R15B^C); R15B^C (PPP1R15B amino acids 636-698); His6 (C); made in house; host or cells: E. coli BL21 pLysS (chimera, eIF2α); E. coli BL21/pGro7 (PP1c)
T3 sequence (O75807+Q5SWA1 fused, stated change not applied): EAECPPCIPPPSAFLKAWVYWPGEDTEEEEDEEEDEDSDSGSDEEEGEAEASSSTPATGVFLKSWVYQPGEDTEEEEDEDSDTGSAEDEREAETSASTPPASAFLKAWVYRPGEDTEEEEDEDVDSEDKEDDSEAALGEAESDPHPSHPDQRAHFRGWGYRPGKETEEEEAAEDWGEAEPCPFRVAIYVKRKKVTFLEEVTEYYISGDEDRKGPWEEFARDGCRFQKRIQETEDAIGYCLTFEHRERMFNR
T3 sequence (P62136 7-330 partner): as the sequence (P62136 7-330) above
Excerpt: (§3) The cDNA encoding human PPP1R15A, PPP1R15B and PPP1R3A regulatory subunits were cloned into a pMAL-c5×-His vector, encoding for an amino-terminal MBP-tag and a carboxy-terminal His6-tag. […] R15A^N/R15B^C Chimeras were obtained by swapping the amino-terminal regions (R15^N) of R15A and R15B proteins described above, whilst maintaining the same carboxy-terminal regions (R15^C), to produce R15B^N/R15A^C and […] chimeras respectively, using In-Fusion cloning (Takara). All regulatory subunits were expressed in BL21 pLysS cells in Luria broth (LB) at 30° C. overnight. […] R15 proteins were stored at −80° C. and used within one month.
as §1
(§4) The reaction was initiated by the addition of 1 μM P-eIF2α or ^33P Phosphorylase a substrates and then incubated at 30° C. for 16 h with shaking at 350 rpm. Reactions were stopped by addition of 4× Laemmli sample buffer. eIF2α samples were analyzed by immunoblotting or Phos-tag gels. […]

R15B^N/R15A^C = target: T4, R15B^N/R15A^C (Homo sapiens, UniProt O75807+Q5SWA1); experiment: Dephosphorylation of P-eIF2α by chimeric holophosphatase PP1c-R15B^N/R15A^C; type: biochemical; conditions: PP1c 10 nM, compounds 100 μM, 30° C., 16 h
T4 construct: PPP1R15B amino acids 340-698 (R15B), 340-635 (R15B^N), and 636-698 (R15B^C); PPP1R15A amino acids 325-636 (R15A), 325-512 (R15A^N), and 513-636 (R15A^C); R15A^C (PPP1R15A amino acids 513-636); His6 (C); made in house; host or cells: E. coli BL21 pLysS (chimera, eIF2α); E. coli BL21/pGro7 (PP1c)
T4 sequence (Q5SWA1+O75807 fused, stated change not applied): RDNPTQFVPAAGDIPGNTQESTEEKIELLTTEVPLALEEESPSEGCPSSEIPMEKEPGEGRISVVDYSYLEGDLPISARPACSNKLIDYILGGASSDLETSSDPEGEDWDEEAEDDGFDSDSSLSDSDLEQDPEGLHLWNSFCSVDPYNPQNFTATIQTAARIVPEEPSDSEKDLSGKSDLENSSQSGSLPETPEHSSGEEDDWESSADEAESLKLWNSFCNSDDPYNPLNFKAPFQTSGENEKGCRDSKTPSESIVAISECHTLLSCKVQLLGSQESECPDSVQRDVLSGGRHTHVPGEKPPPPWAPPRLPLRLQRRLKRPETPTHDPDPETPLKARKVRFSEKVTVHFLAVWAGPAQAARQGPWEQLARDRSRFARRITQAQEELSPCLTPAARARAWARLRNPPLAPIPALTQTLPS
T4 sequence (P62136 7-330 partner): as the sequence (P62136 7-330) above
Excerpt: as §3, §1, §4

R15A = target: T5, R15A (Homo sapiens, UniProt O75807); experiment: Limited trypsin proteolysis of R15A (conformational change); conditions: 22° C.
T5 construct: PPP1R15A amino acids 325-636 (R15A); His6 (C); made in house; host or cells: E. coli BL21 pLysS
T5 sequence (O75807 325-636, stated change not applied): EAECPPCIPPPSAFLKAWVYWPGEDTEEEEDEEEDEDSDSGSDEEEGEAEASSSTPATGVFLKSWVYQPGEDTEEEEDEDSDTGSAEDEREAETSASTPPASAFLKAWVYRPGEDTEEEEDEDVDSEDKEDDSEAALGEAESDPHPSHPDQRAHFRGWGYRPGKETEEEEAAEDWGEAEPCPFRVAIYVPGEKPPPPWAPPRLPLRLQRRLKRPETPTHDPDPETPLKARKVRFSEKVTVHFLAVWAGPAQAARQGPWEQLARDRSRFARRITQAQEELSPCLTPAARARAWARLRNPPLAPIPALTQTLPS
Method: (§5) Reactions were allowed to proceed at 22° C. with shaking at 350 rpm. At time points 30 min, 1 h, 2 h or 3 h, 30 μl of sample was removed from the mix and digestion was stopped by addition of 10 μl of 16% SDS Laemmli sample buffer. Samples were run on 4-12% NuPAGE Bis-Tris gels (Life Technologies). Proteins were visualised by staining with InstantBlue Coomassie Protein Stain (Expedeon) protein stain.
(§6) Purified R15A and R15B were diluted to 3 μM in PBS, and incubated for 15′ at RT with 100 μM Raphin1, or DMSO vehicle. Reactions were initiated by addition of 5 nM of trypsin from bovine pancreas (Sigma), made up in PBS, and allowed to proceed for 5′ at 22° C., with shaking at 350 rpm. Digestion was stopped by addition of 4× Laemmli sample buffer and samples were run on 4-12% NuPAGE Bis-Tris gels (Life Technologies). Proteins were visualised by staining with InstantBlue Protein Stain.

R15B = target: T6, R15B (Homo sapiens, UniProt Q5SWA1); experiment: Limited trypsin proteolysis of R15B (conformational change); conditions: 22° C.
T6 construct: PPP1R15B amino acids 340-698 (R15B); His6 (C); made in house; host or cells: E. coli BL21 pLysS
T6 sequence (Q5SWA1 340-698): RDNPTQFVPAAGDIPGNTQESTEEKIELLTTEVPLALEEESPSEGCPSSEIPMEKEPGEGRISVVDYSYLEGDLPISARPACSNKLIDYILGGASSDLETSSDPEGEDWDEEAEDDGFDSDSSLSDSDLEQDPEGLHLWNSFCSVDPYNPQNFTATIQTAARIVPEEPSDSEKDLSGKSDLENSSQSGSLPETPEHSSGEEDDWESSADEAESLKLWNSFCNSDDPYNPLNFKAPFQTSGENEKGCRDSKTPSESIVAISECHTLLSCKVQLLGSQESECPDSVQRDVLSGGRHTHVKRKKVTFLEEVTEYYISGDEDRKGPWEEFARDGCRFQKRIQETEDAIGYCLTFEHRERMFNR
Method: as §5, §6

T1 sequence (P62136 7-330 partner limits assumed, one chain of several): as the sequence (P62136 7-330) above

| inhibition of R15B-PP1c eIF2α holophosphatase (R15B-PP1c) | inhibition of PP1c alone (PP1c) | inhibition of R15A^N/R15B^C chimeric holophosphatase (R15A^N/R15B^C) | inhibition of R15B^N/R15A^C chimeric holophosphatase (R15B^N/R15A^C) | sensitivity of R15B to trypsin proteolysis (R15B; 100 μM compound, 0.5 μM R15B, 2.5 nM trypsin, 30 min to 3 h) | trypsin sensitivity of R15B (R15B; 100 μM Raphin1, 3 μM R15B, 5 nM trypsin, 5 min) | SMILES | sensitivity of R15A to trypsin proteolysis (R15A; 100 μM compound, 0.5 μM R15A, 2.5 nM trypsin, 30 min to 3 h) | trypsin sensitivity of R15A (R15A; 100 μM Raphin1, 3 μM R15A, 5 nM trypsin, 5 min) |
| --- | --- | --- | --- | --- | --- | --- | --- | --- |
| not R15B-PP1c | did not inhibit PP1c | inhibited | largely insensitive | No such protective effects |  | N=C(N)N/N=C/c1c(Cl)cccc1Cl [Guanabenz] | decreased the sensitivity of R15A to trypsin proteolysis |  |
| selectively inhibited R15B-PP1c | did not inhibit PP1c | not R15A^N/R15B^C | selectively inhibited R15B^N/R15A^C |  | protected R15B | NC(N)=N/N=C/c1cccc(Cl)c1Cl [Raphin1] |  | had no effect on the trypsin sensitivity of R15A |

Source: patent publication US20200199647A1, “ASSAY FOR SCREENING MODULATORS OF HOLOPHOSPHATASE ACTIVITY” (UNITED KINGDOM RESEARCH AND INNOVATION, priority 2017, published 2020)
